Results as given in patent publication US20230295087A1, “AGONISTS OF ROR GAMMAt” (BRISTOL-MYERS SQUIBB COMPANY, priority 2019, published 2023).

Biological target: T1, human RORgT (Homo sapiens, UniProt P51449)
T1 construct: expressed in transfected cells
T1 sequence (P51449 267-516): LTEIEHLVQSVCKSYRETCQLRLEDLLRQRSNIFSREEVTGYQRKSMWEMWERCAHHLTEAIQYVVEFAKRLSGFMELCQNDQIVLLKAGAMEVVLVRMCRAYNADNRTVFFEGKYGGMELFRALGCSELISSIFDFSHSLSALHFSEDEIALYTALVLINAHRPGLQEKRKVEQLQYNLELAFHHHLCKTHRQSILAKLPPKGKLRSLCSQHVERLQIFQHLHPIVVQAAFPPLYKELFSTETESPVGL
Assay: RORgT Gal4 Luciferase Reporter Gene Assay
Type: cell-based
Conditions: engineered Jurkat cells overexpressing RORgT (LBD or full length) fused with Gal4 Luc reporter; 18 hours at 37° C.; luminescence
Procedure, shortened: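 Jurkat cells expressing Gal4 Luc with either RORgT LBD (aa267-516) or full-length human RORgT, 10,000 cells/well, treated with compound (40 µM to 0.67 nM final, 3-fold dilutions) for 18 h at 37° C. Steady-Glo luminescence read; inhibition of constitutive activity as % signal-window reduction relative to a control compound.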

Row | SMILES | EC50
1 | NS(=O)(=O)CC(=O)N1CC[C@@]2(S(=O)(=O)c3ccccc3)c3ccc(OCc4c(F)cccc4Cl)cc3CC[C@@H]12 [Example 148, 2-[(3aR,9bR)-9b-(benzenesulfonyl)-7-[(2-chloro-6-fluorophenyl)methoxy]-1H,2H,3H,3aH,4H,5H,9bH-benzo[e]indol-3-yl]-2-oxoethane-1-sulfonamide] | 119 nM
2 | O=C(C1CCS(=O)(=O)CC1)N1CC[C@@]2(S(=O)(=O)c3ccccc3)c3ccc(OCc4c(F)cc(F)cc4Cl)cc3CC[C@@H]12 [Example 149, 4-[(3aR,9bR)-9b-(benzenesulfonyl)-7-[(2-chloro-4,6-difluorophenyl)methoxy]-1H,2H,3H,3aH,4H,5H,9bH-benzo[e]indole-3-carbonyl]-1λ^6-thiane-1,1-dione] | 7.7 nM
3 | CN1C(=O)CC[C@H]1C(=O)N1CC[C@@]2(S(=O)(=O)c3ccccc3)c3ccc(OCc4c(F)cccc4Cl)cc3CC[C@@H]12 [Example 150, (5S)-5-[(3aR,9bR)-9b-(benzenesulfonyl)-7-[(2-chloro-6-fluorophenyl)methoxy]-1H,2H,3H,3aH,4H,5H,9bH-benzo[e]indole-3-carbonyl]-1-methylpyrrolidin-2-one] | 6.1 nM
4 | O=C(O)[C@H]1CC[C@H](C(=O)N2CC[C@@]3(S(=O)(=O)c4ccc(F)cc4)c4ccc(OCc5cc(F)c(F)cc5Cl)cc4CC[C@@H]23)CC1 [Example 151, (1r,4r)-4-[(3aR,9bR)-7-[(2-chloro-4,5-difluorophenyl)methoxy]-9b-(4-fluorobenzenesulfonyl)-1H,2H,3H,3aH,4H,5H,9bH-benzo[e]indole-3-carbonyl]cyclohexane-1-carboxylic acid] | 16 nM
5 | O=C(C1CCS(=O)(=O)CC1)N1CC[C@@]2(S(=O)(=O)c3ccc(F)cc3)c3ccc(OCc4cc(F)c(F)cc4Cl)cc3CC[C@@H]12 [Example 152, 4-[(3aR,9bR)-7-[(2-chloro-4,5-difluorophenyl)methoxy]-9b-(4-fluorobenzenesulfonyl)-1H,2H,3H,3aH,4H,5H,9bH-benzo[e]indole-3-carbonyl]-1λ^6-thiane-1,1-dione] | 15 nM
6 | O=C(C1CCS(=O)(=O)CC1)N1CC[C@@]2(S(=O)(=O)c3ccc(F)cc3)c3ccc(OCc4cccc(Cl)c4)cc3CC[C@@H]12 [Example 153, 4-[(3aR,9bR)-7-[(3-chlorophenyl)methoxy]-9b-(4-fluorobenzenesulfonyl)-1H,2H,3H,3aH,4H,5H,9bH-benzo[e]indole-3-carbonyl]-1λ^6-thiane-1,1-dione] | 14 nM
7 | NS(=O)(=O)CC(=O)N1CC[C@@]2(S(=O)(=O)c3ccc(F)cc3)c3ccc(OCc4c(F)cccc4Cl)cc3CC[C@@H]12 [Example 154, 2-[(3aR,9bR)-7-[(2-chloro-6-fluorophenyl)methoxy]-9b-(4-fluorobenzenesulfonyl)-1H,2H,3H,3aH,4H,5H,9bH-benzo[e]indol-3-yl]-2-1 oxoethane-1-sulfonamide] | 58 nM
8 | N#CCCN1C(=O)CC[C@H]1C(=O)N1CC[C@@]2(S(=O)(=O)c3ccc(F)cc3)c3ccc(OCc4c(F)cccc4C(F)(F)F)cc3CC[C@@H]12 [Example 155, 3-[(2S)-2-[(3aR,9bR)-7-{[2-fluoro-6-(trifluoromethyl)phenyl]methoxy}-9b-(4-fluorobenzenesulfonyl)-1H,2H,3H,3aH,4H,5H,9bH-benzo[e]indole-3-carbonyl]-5-oxopyrrolidin-1-yl]propanenitrile] | 4.3 nM
9 | N#CCCN1C(=O)CC[C@H]1C(=O)N1CC[C@@]2(S(=O)(=O)c3ccc(F)cc3)c3ccc(OCc4c(Cl)cccc4Cl)cc3CC[C@@H]12 [Example 156, 3-[(2S)-2-[(3aR,9bR)-7-[(2,6-dichlorophenyl)methoxy]-9b-(4-fluorobenzenesulfonyl)-1H,2H,3H,3aH,4H,5H,9bH-benzo[e]indole-3-carbonyl]-5-oxopyrrolidin-1-yl]propanenitrile] | 11 nM
